Assay results taken from patent US12077503B2, “Substituted cyclic amides and their use as herbicides” (FMC CORPORATION, priority 2015, dated 2024).

What was measured:
Type in all cases: in vivo
[1] = test system: ryegrass, Italian (Italian ryegrass, Lolium multiflorum); assay: Test A postemergence; conditions: Lolium multiflorum, post-emergence, 240 h, postemergence, read-out: Ryegrass, Italian plant response rating; for pest or weed control at 125 g/ha: 125 g ai/ha, visual injury on 0 to 100 scale (0 no effect, 100 complete control), approx. 10 d; for pest or weed control at 500 g/ha: 500 g ai/ha, 0 to 100 scale, 0 is no effect, 100 is complete control
In short: (§1)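 Preemergence soil spray on seeded pots or post-emergence spray on 1–2 leaf plants, in loam–sand blend. Greenhouse ~10 d. Visual rating 0–100 against untreated plants.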

[2] = test system: Galium (catchweed bedstraw, Galium aparine); assay: Test A postemergence; conditions: Galium, post-emergence, 240 h, postemergence, read-out: Galium plant response rating; for pest or weed control at 125 g/ha: 125 g ai/ha, visual injury on 0 to 100 scale (0 no effect, 100 complete control), approx. 10 d; for pest or weed control at 500 g/ha: 500 g ai/ha, 0 to 100 scale, 0 is no effect, 100 is complete control
In short: as §1

[3] = test system: pigweed (Amaranthus retroflexus); assay: Test A postemergence; conditions: Amaranthus retroflexus, post-emergence, 240 h, postemergence, read-out: Pigweed plant response rating; for pest or weed control at 125 g/ha: 125 g ai/ha, visual injury on 0 to 100 scale (0 no effect, 100 complete control), approx. 10 d; for pest or weed control at 500 g/ha: 500 g ai/ha, 0 to 100 scale, 0 is no effect, 100 is complete control
In short: as §1

[4] = test system: barnyardgrass (Echinochloa crus-galli); assay: Test A postemergence; conditions: Echinochloa crus-galli, post-emergence, 240 h, postemergence, read-out: Barnyardgrass plant response rating; for pest or weed control at 125 g/ha: 125 g ai/ha, visual injury on 0 to 100 scale (0 no effect, 100 complete control), approx. 10 d; for pest or weed control at 500 g/ha: 500 g ai/ha, 0 to 100 scale, 0 is no effect, 100 is complete control
In short: as §1

[5] = test system: giant foxtail (Setaria faberii); assay: Test A postemergence; conditions: Setaria faberi, post-emergence, 240 h, postemergence, read-out: Foxtail, Giant plant response rating; for pest or weed control at 125 g/ha: 125 g ai/ha, visual injury on 0 to 100 scale (0 no effect, 100 complete control), approx. 10 d; for pest or weed control at 500 g/ha: 500 g ai/ha, 0 to 100 scale, 0 is no effect, 100 is complete control
In short: as §1

Kochia (Kochia scoparia) [6] = assay: Test A postemergence; conditions: Bassia scoparia, post-emergence, 240 h, postemergence, read-out: Kochia plant response rating; for pest or weed control at 125 g/ha: 125 g ai/ha, visual injury on 0 to 100 scale (0 no effect, 100 complete control), approx. 10 d; for pest or weed control at 500 g/ha: 500 g ai/ha, 0 to 100 scale, 0 is no effect, 100 is complete control
In short: as §1

corn (Zea mays) = assay: Test A postemergence; conditions: Zea mays, post-emergence, 240 h, postemergence, read-out: Corn plant response rating; for plant injury at 125 g/ha: 125 g ai/ha, visual injury on 0 to 100 scale (0 no effect, 100 complete control), approx. 10 d; for plant injury at 500 g/ha: 500 g ai/ha, 0 to 100 scale, 0 is no effect, 100 is complete control
In short: as §1

[7] = test system: wheat (Triticum aestivum); assay: Test A postemergence; conditions: Triticum aestivum, post-emergence, 240 h, postemergence, read-out: Wheat plant response rating; for plant injury at 125 g/ha: 125 g ai/ha, visual injury on 0 to 100 scale (0 no effect, 100 complete control), approx. 10 d; for plant injury at 500 g/ha: 500 g ai/ha, 0 to 100 scale, 0 is no effect, 100 is complete control
In short: as §1

[8] = test system: ragweed (common ragweed, Ambrosia elatior); assay: Test A postemergence; conditions: Ambrosia artemisiifolia, post-emergence, 240 h, postemergence, read-out: Ragweed plant response rating; for pest or weed control at 125 g/ha: 125 g ai/ha, visual injury on 0 to 100 scale (0 no effect, 100 complete control), approx. 10 d; for pest or weed control at 500 g/ha: 500 g ai/ha, 0 to 100 scale, 0 is no effect, 100 is complete control
In short: as §1

[9] = test system: ryegrass, Italian (Italian ryegrass, Lolium multiflorum); assay: Test A preemergence; conditions: Lolium multiflorum, pre-emergence, 240 h, preemergence, read-out: Ryegrass, Italian plant response rating; for pest or weed control at 125 g/ha: 125 g ai/ha, approx. 10 d; for pest or weed control at 500 g/ha: 500 g ai/ha
In short: as §1

[10] = test system: pigweed (Amaranthus retroflexus); assay: Test A preemergence; conditions: Amaranthus retroflexus, pre-emergence, 240 h, preemergence, read-out: Pigweed plant response rating; for pest or weed control at 125 g/ha: 125 g ai/ha, approx. 10 d; for pest or weed control at 500 g/ha: 500 g ai/ha
[11] = test system: barnyardgrass (Echinochloa crus-galli); assay: Test A preemergence; conditions: Echinochloa crus-galli, pre-emergence, 240 h, preemergence, read-out: Barnyardgrass plant response rating; for pest or weed control at 125 g/ha: 125 g ai/ha, approx. 10 d; for pest or weed control at 500 g/ha: 500 g ai/ha
In short: as §1

[12] = test system: giant foxtail (Setaria faberii); assay: Test A preemergence; conditions: Setaria faberi, pre-emergence, 240 h, preemergence, read-out: Foxtail, Giant plant response rating; for pest or weed control at 125 g/ha: 125 g ai/ha, approx. 10 d; for pest or weed control at 500 g/ha: 500 g ai/ha
In short: as §1

Kochia (Kochia scoparia) [13] = assay: Test A preemergence; conditions: Bassia scoparia, pre-emergence, 240 h, preemergence, read-out: Kochia plant response rating; for pest or weed control at 125 g/ha: 125 g ai/ha, approx. 10 d; for pest or weed control at 500 g/ha: 500 g ai/ha
In short: as §1

[14] = test system: ragweed (common ragweed, Ambrosia elatior); assay: Test A preemergence; conditions: Ambrosia artemisiifolia, pre-emergence, 240 h, preemergence, read-out: Ragweed plant response rating; for pest or weed control at 125 g/ha: 125 g ai/ha, approx. 10 d; for pest or weed control at 500 g/ha: 500 g ai/ha
In short: as §1

[15] = 0 to 100 scale where 0 is no effect and 100 is complete control
[16] = visual injury rating about 10 d after treatment, 0 to 100 scale (0 no effect, 100 complete control)

Row | SMILES | pest or weed control at 125 g/ha [1] [%] | pest or weed control at 500 g/ha [1] [%] | pest or weed control at 125 g/ha [2] [%] | pest or weed control at 500 g/ha [2] [%] | pest or weed control at 125 g/ha [3] [%] | pest or weed control at 500 g/ha [3] [%] | pest or weed control at 125 g/ha [4] [%] | pest or weed control at 500 g/ha [4] [%] | pest or weed control at 125 g/ha [5] [%] | pest or weed control at 500 g/ha [5] [%] | pest or weed control at 125 g/ha (Kochia (Kochia scoparia) [6]) [%] | pest or weed control at 500 g/ha (Kochia (Kochia scoparia) [6]) [%] | plant injury at 125 g/ha (corn (Zea mays)) [%] | plant injury at 500 g/ha (corn (Zea mays)) [%] | plant injury at 125 g/ha [7] [%] | plant injury at 500 g/ha [7] [%] | pest or weed control at 125 g/ha [8] [%] | pest or weed control at 500 g/ha [8] [%] | pest or weed control at 125 g/ha [9, 15] [%] | pest or weed control at 125 g/ha [10, 15] [%] | further results
1 | O=C1NC[C@H](c2ccc(F)c(OC(F)(F)C(F)F)c2)[C@H]1C(=O)Nc1ccccc1F [Compound 1133] | 20 | 40 | 70 | 70 | 0 | 70 | 80 | 90 | 90 | 90 | 30 | 70 | 50 | 80 | 60 | 70 | 60 | 70 | 20 | 30 | pest or weed control at 500 g/ha [9, 15]: 30%; pest or weed control at 500 g/ha [10, 15]: 70%; pest or weed control at 125 g/ha [11, 15]: 90%; pest or weed control at 500 g/ha [11, 15]: 90%; pest or weed control at 125 g/ha [12, 15]: 90%; pest or weed control at 500 g/ha [12, 15]: 90%; pest or weed control at 125 g/ha (Kochia (Kochia scoparia) [13]; [15]): 60%; pest or weed control at 500 g/ha (Kochia (Kochia scoparia) [13]; [15]): 100%; pest or weed control at 125 g/ha [14, 15]: 40%; pest or weed control at 500 g/ha [14, 15]: 60%
2 | CN1C[C@H](c2cc(F)cc(F)c2)[C@@H](C(=O)Nc2ncccc2Cl)C1=O [Compound 1097] | 0 | 0 | 0 | 0 | 0 | 0 | 0 | 0 | 0 | 0 | 0 | 0 | 0 | 0 | 0 | 0 | 0 | 0 | 0 | 0 | pest or weed control at 500 g/ha [9, 16]: 0%; pest or weed control at 500 g/ha [10, 16]: 0%; pest or weed control at 125 g/ha [11, 15]: 0%; pest or weed control at 500 g/ha [11, 16]: 0%; pest or weed control at 125 g/ha [12, 15]: 0%; pest or weed control at 500 g/ha [12, 16]: 0%; pest or weed control at 125 g/ha (Kochia (Kochia scoparia) [13]; [15]): 0%; pest or weed control at 500 g/ha (Kochia (Kochia scoparia) [13]; [16]): 0%; pest or weed control at 125 g/ha [14, 15]: 0%; pest or weed control at 500 g/ha [14, 16]: 0%
